Source: PubChem BioAssay (NCI)
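Where inhibition never reached the appropriate level, the endpoint shown equals the highest concentration tested. Otherwise, values were interpolated linearly from a five-concentration, 48-hour dose response in 96-well plates. GI50 = concentration required for 50% inhibition of growth. TGI marks complete inhibition of growth.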

Experiments:
Assay in all cases: NCI-60 cell line screen, 48 h
SNB-19 CNS = test system: SNB-19 CNS
RXF 393 renal = test system: RXF 393 renal
SF-539 CNS = test system: SF-539 CNS
HT29 colon = test system: HT29 colon
NCI-H23 lung = test system: NCI-H23 lung
SF-268 CNS = test system: SF-268 CNS
OVCAR-4 ovarian = test system: OVCAR-4 ovarian
OVCAR-5 ovarian = test system: OVCAR-5 ovarian
MALME-3M melanoma = test system: MALME-3M melanoma
TK-10 renal = test system: TK-10 renal

SMILES	TGI (SNB-19 CNS)	TGI (RXF 393 renal)	TGI (SF-539 CNS)	TGI (HT29 colon)	TGI (NCI-H23 lung)	TGI (SF-268 CNS)	TGI (OVCAR-4 ovarian)	TGI (OVCAR-5 ovarian)	TGI (MALME-3M melanoma)	GI50 (TK-10 renal)	TGI (TK-10 renal)	GI50 (SNB-19 CNS)	GI50 (RXF 393 renal)	GI50 (SF-539 CNS)	GI50 (HT29 colon)	GI50 (NCI-H23 lung)	GI50 (SF-268 CNS)	GI50 (OVCAR-4 ovarian)	GI50 (OVCAR-5 ovarian)	GI50 (MALME-3M melanoma)
Nc1ccc2c(c1)C1=NNC(=O)CC1C2 (stereo unspecified)	> 100 µM	> 100 µM	> 100 µM	> 100 µM	> 100 µM	> 100 µM	> 100 µM	> 100 µM	> 100 µM											
COc1cc(-c2n/c(=C\c3c(O)[nH]c4ccc(Cl)cc34)cc3c2=Nc2ccccc2-3)cc(OC)c1OC	3.84 µM	3.33 µM	4.91 µM	2.96 µM	3.85 µM	3.95 µM	1.78 µM	16.9 µM		1.5 µM	3.2 µM	1.18 µM	1.63 µM	2.32 µM	1.04 µM	1.05 µM	1.6 µM	0.423 µM	5.15 µM	
CN1CCN(c2ccc(-c3ccc4ncc(C#N)c(Nc5ccc(F)c(Cl)c5)c4c3)cc2)CC1	19.2 µM	5.54 µM	4.07 µM	8.32 µM	41.5 µM	15.9 µM	25.6 µM	25.5 µM	4.04 µM	0.484 µM	18.8 µM	3.36 µM	1.62 µM	1.86 µM	2.33 µM	10.1 µM	2.87 µM	3.18 µM	4.74 µM	1.74 µM
[N-]=[N+]=Nc1ccc(NCCCCCC(=O)ON2C(=O)CCC2=O)c([N+](=O)[O-])c1	> 100 µM	> 100 µM	> 100 µM	> 100 µM	> 100 µM	> 100 µM	> 100 µM	> 100 µM	> 100 µM		> 100 µM									
C=C(C)[C@@H]1CC[C@]2(C)CC[C@]3(C)[C@H](CC[C@@H]4[C@@]5(C)CC[C@H](OC(=O)c6ccccc6)C(C)(C)[C@@H]5CC[C@]43C)[C@@H]12	> 100 µM		> 100 µM	> 100 µM	> 100 µM	> 100 µM	> 100 µM	> 100 µM	> 100 µM		> 100 µM									
O=C(N/C(=C\c1ccccc1[N+](=O)[O-])c1nc2ccccc2[nH]1)c1ccccc1	> 100 µM	> 100 µM		> 100 µM	> 100 µM		> 100 µM	> 100 µM	> 100 µM		> 100 µM									
COc1ccc(NS(=O)c2ccc(-c3ccccc3)cc2)cc1 (stereo unspecified)	> 100 µM	> 100 µM	> 100 µM	> 100 µM	> 100 µM	> 100 µM		> 100 µM	> 100 µM		> 100 µM									
Cc1nc(Cl)c(Cl)c(Cl)n1	2.74 µM	1.85 µM	2.82 µM	0.442 µM	2.1 µM	4.27 µM	0.097 µM	3.03 µM	0.573 µM		3.51 µM									
O=c1[nH][nH]c(=O)[nH]1	> 100 µM	> 100 µM	> 100 µM	> 100 µM	> 100 µM	> 100 µM	> 100 µM	> 100 µM	> 100 µM		> 100 µM									
CC1SC(c2ccccc2)N(Nc2c3ccccc3nc3ccccc23)C1=O (stereo unspecified)	> 100 µM		> 100 µM	> 100 µM	> 100 µM	> 100 µM	> 100 µM	> 100 µM	> 100 µM											
CNC(C)Cc1ccccc1O (stereo unspecified)	> 100 µM	> 100 µM	> 100 µM	> 100 µM	> 100 µM	> 100 µM	> 100 µM	> 100 µM	> 100 µM		> 100 µM									
CO[C@H]1[C@@H](O)[C@@H](C)O[C@@H](O[C@H]2CC[C@@]3(C)[C@H](CC[C@@H]4[C@@H]3CC[C@]3(C)[C@@H](C5=CC(=O)OC5)CC[C@]43O)C2)[C@@H]1O	0.211 µM	0.00617 µM	0.0247 µM	0.0504 µM	0.00675 µM	0.0366 µM	0.0322 µM	0.0932 µM	0.00902 µM		0.0201 µM					< 0.0025 µM				
CCn1nc(C)c2c1C(=O)NC(C)C(=O)N2 (stereo unspecified)	> 100 µM	> 100 µM	> 100 µM	> 100 µM	> 100 µM	> 100 µM	> 100 µM	> 100 µM			> 100 µM									
CN(C)CCNc1ccc2ncnc3c2c1C(=O)c1ccccc1-3	29.8 µM	2.32 µM	17 µM	2.98 µM	3.4 µM	4.48 µM	4.27 µM	3.42 µM	2.38 µM		3.92 µM									
